Where two headings read alike, the source gives them in different places.
Target: T1, CYP19 (aromatase) containing microsomes (Homo sapiens, UniProt P11511)
T1 sequence (P11511 1-503): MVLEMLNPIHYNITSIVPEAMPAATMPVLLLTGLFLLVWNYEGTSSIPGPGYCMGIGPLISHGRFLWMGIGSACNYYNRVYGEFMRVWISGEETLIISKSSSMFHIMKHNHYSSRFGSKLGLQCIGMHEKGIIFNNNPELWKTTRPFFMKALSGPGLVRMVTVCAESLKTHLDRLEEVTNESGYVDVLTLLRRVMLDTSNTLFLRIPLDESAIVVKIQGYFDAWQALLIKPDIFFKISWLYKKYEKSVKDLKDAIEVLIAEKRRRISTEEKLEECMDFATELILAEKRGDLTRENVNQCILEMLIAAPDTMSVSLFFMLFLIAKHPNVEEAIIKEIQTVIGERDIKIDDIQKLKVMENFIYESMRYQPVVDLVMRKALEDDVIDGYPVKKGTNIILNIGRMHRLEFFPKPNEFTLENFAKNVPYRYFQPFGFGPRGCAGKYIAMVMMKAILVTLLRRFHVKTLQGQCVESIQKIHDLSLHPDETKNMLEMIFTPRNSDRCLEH
Conditions: for change in intensity relative to the control: 20 μl of CYP19 aromatase preparation (FIG. 5); for decrease in intensity relative to the control reaction: 2 μM substrate, 1 mM NADPH
Protocol: NADPH was prepared to a final concentration of 1 mM in 100 mM disodium hydrogen phosphate buffer pH7.4.
100 μl of this reagent was dispensed in to replicate wells of a 96 well microtitre plate. To each well was dispensed 20 μl-30 μl of either the CYP19 (aromatase) containing microsomes or control microsomes (no CYP19). All microsomes were adjusted to the same protein concentration with assay buffer. The plates were incubated at 37° C. for 1 hour and then fluorescence intensity measurements were recorded on the Envision Plate Reader (Perkin Elmer, US), excitation 405 nm/emission BFP450 nm.

SMILES | fluorescence intensity, aromatase microsomes compared to control microsome preparation | change in intensity relative to the control | decrease in intensity relative to the control reaction (300 of microsome preparation, 37° C. for 1 hour (FIG. 3)) | decrease in fluorescence (in the absence of additional co-factor (NADPH) (FIG. 4)) | decrease in fluorescence (in the presence of additional NADPH (FIG. 4)) | decrease in intensity relative to the control reaction (microsome volume of 200, 37° C. for 1 hour, excitation 405 nm/emission 450 nm (FIG. 3))
C[C@]12CCC(=O)C=C1CC[C@@H]1[C@@H]2CC[C@]2(C)C(C(=O)NCCNC(=O)CCCCCn3c4ccccc4c(=O)c4ccccc43)CC[C@@H]12 (stereo partly shown) [Formula XX, 3-oxo-N-(2-{[6-(9-oxoacridin-10(9H)-yl)hexanoyl]amino}ethyl)androst-4-ene-17-carboxamide] | greater decrease in fluorescence intensity | 17.5% | 24.2% | 16% | 24% | 17.5%
O=C(O)CCCCCn1c2ccccc2c(=O)c2ccccc21 [compound XVII, 6-(9-oxoacridin-10(9H)-yl)hexanoic acid, reference compound] |  | 5% |  |  |  | 

From patent publication US7829714B2, “Method for measuring aromatase activity” (GE Healthcare Limited, priority 2003, dated 2010)
